The target of assay [1] is T1, endogenously expressed TGR5 in NCI H716 (Homo sapiens, UniProt Q8TDU6).
T1 construct: human caecum carcinoma cell line NCI-H716 which endogenously expresses human TGR5; endogenous in cells; host or cells: NCI-H716
T1 sequence (Q8TDU6 1-330): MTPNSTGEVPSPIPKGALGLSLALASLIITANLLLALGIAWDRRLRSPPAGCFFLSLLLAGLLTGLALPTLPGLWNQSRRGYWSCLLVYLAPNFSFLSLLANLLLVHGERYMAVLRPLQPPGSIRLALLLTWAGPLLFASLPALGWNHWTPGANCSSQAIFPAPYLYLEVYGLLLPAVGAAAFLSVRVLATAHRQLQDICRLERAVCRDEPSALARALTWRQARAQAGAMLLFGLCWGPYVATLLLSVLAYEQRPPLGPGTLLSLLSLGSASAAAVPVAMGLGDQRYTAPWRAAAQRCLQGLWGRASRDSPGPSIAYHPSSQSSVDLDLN
Nature of the assay: Cell-based TGR5 assay, NCI-H716 cells endogenously expressing human TGR5, cAMP by HTRF. The settings on record: 30 min at 37 C, 22 nM to 50 μM, read-out: pEC50 endogenously expressed TGR5 in NCI H716 (converted). The protocol: Two primary cell based screens were performed. The first utilized HEK293 cells stably transfected to heterologously express human TGR5. The second screen used the human caecum carcinoma cell line NCI-H716 which endogenously expresses human TGR5. In both assays, cells are treated with candidate TGR5 activators and assessed for the increased intercellular levels of cAMP. […]
(§1) TGR5-mediated cAMP generation was measured using a homogeneous time resolved fluorescence (HTRF) detection method (Cisbio). Test compounds were dissolved in DMSO to a final concentration of 10 mM. Serial 3-fold dilutions of the stock solution were made in DMSO, and these solutions were diluted 100-fold into Hanks Balanced Salt Solution supplemented with 10 mM HEPES pH 7.4 and 0.5 mM isobutyl methylxanthine (IBMX). Prior to assay, culture medium was replaced with fresh medium, and test compounds diluted in HBSS/HEPES/IBMX were added to the cells and incubated at 37° C. for 30 minutes.
(§2) Following incubation with test compounds, cAMP was detected through the successive addition of cAMP labeled with the modified allophyocyanin dye d2 (cAMP-d2) and cryptate-labeled anti-cAMP in lysis buffer, and reading HTRF per the manufacturer's instructions. A standard curve was used to convert the raw HTRF data into [cAMP].

The target in a further assay is T2, human TGR5 (Homo sapiens, UniProt Q8TDU6).
T2 construct: expressed in transfected cells
T2 sequence (Q8TDU6 1-330): T1 sequence (Q8TDU6 1-330)
In words: Cell-based TGR5 assay, HEK293 cells stably expressing human TGR5, cAMP by HTRF. The conditions noted are these: HEK293 cells stably expressing human TGR5, 30 min at 37 C, 0.05 nM to 10 μM, read-out: pEC50 Human TGR5 (converted). The protocol:
Two primary cell based screens were performed. The first utilized HEK293 cells stably transfected to heterologously express human TGR5. The second screen used the human caecum carcinoma cell line NCI-H716 which endogenously expresses human TGR5. In both assays, cells are treated with candidate TGR5 activators and assessed for the increased intercellular levels of cAMP.
HEK293 cells were transfected with a vector that expresses a gene encoding human TGR5, and a stable cell line was isolated using drug selection following standard techniques. Cells were grown overnight at 37° C./5% CO2 prior to assay.
as §1, §2
For orientation: In TR-FRET formats the signal depends on donor and acceptor labels being close together.

Consider `O=C([C@@H]1CCCN1Cc1cc(Cl)ccc1C(F)(F)F)N1CCN(C2CC2)c2ccccc21` [Example 46, (S)-(1-(5-chloro-2-(trifluoromethyl)benzyl)pyrrolidin-2-yl)(4-cyclopropyl-3,4-dihydroquinoxaline-1(2H)-yl)methanone], for which the results for the EC50 (in assay [1]; on human TGR5) were 126 to 1000 nM and under 100 nM, respectively.
In the case of `O=C([C@@H]1CCCN1Cc1c(Cl)cccc1Cl)N1CCN(C2CC2)c2ccccc21` [Example 47, (S)(4-cyclopropyl-3,4-dihydroquinoxaline-1(2H)-yl)(1-(2,6-dichlorobenzyl)pyrrolidin-2-yl) methanone], the EC50 is 1260 to 50100 nM in assay [1] and over 10000 nM at human TGR5.
Consider `CN(C[C@H](O)[C@@H](O)[C@H](O)[C@H](O)CO)C(=O)CCc1cc(Cl)c(CN2CCC[C@H]2C(=O)N2CCN(C3CC3)c3ccccc32)cc1Cl` [Example 48, 3-(2,5-dichloro-4-(((S)-2-(4-cyclopropyl-1,2,3,4-tetrahydroquinoxaline-1carbonyl)pyrrolidin-1-yl)methyl)phenyl)-N-methyl-N-((2S,3R,4R,5R)-2,3,4,5,6-pentahydroxyhexyl)propanamide], for which the EC50 in assay [1] is 1260 to 50100 nM; on human TGR5, 126 to 1000 nM.
Consider `O=C(N1CCN(C2CC2)c2ccccc21)C1(OCc2cc(Cl)ccc2Cl)CNC1` [Example 50, (4-cyclopropyl-3,4-dihydroquinoxalin-1(2H)-yl)(3-(2,5-dichlorobenzyloxyl)azetidin-3-yl)methanone], for which the EC50 in assay [1] is 1260 to 50100 nM; at human TGR5, 126 to 1000 nM.
Take `CN1CC(OCc2cc(Cl)ccc2Cl)(C(=O)N2CCN(C3CC3)c3ccccc32)C1` [Example 51, (4-cyclopropyl-3,4-dihydroquinoxalin-1(2H)-yl)(3-(2,5-dichlorobenzyloxy)-1-methylazetidin-3-yl)methanone]: the EC50 is 1260 to 50100 nM in assay [1] and 126 to 1000 nM at human TGR5.
`CCN1CC(OCc2cc(Cl)ccc2Cl)(C(=O)N2CCN(C3CC3)c3ccccc32)C1` [Example 52, (4-cyclopropyl-3,4-dihydroquinoxalin-1(2H)-yl)(3-(2,5-dichlorobenzyloxy)-1-ethylazetidin-3-yl)methanone]: the EC50 in assay [1] was 1260 to 50100 nM; at human TGR5, 126 to 1000 nM.
As to `CC(C)N1CC(OCc2cc(Cl)ccc2Cl)(C(=O)N2CCN(C3CC3)c3ccccc32)C1` [Example 53, (4-cyclopropyl-3,4-dihydroquinoxalin-1(2H)-yl)(3-(2,5-dichlorobenzyloxy)-1-isopropylazetidin-3-yl)methanone], the EC50 (in assay [1]; on human TGR5) was 1260 to 50100 nM each time.
Take `CC(=O)N1CC(OCc2cc(Cl)ccc2Cl)(C(=O)N2CCN(C3CC3)c3ccccc32)C1` [Example 54, 1-(3-(4-cyclopropyl-1,2,3,4-tetrahydroquinoxaline-1-carbonyl)-3-(2,5-dichlorobenzyloxyl)azetidin-1-yl)ethanone]: the EC50 in assay [1] is 1260 to 50100 nM; on human TGR5, 126 to 1000 nM.
Consider `CS(=O)(=O)N1CC(OCc2cc(Cl)ccc2Cl)(C(=O)N2CCN(C3CC3)c3ccccc32)C1` [Example 55, (4-cyclopropyl-3,4-dihydroquinoxalin-1(2H)-yl)(3-(2,5-dichlorobenzyloxy)-1-(methylsulfonyl)azetidin-3-yl)methanone], for which the values for the EC50 (in assay [1]; at human TGR5) were 1260 to 50100 nM and 126 to 1000 nM, respectively.
Take `Cc1cccc(CC2CCCN2C(=O)N2CCN(C3CC3)c3ccccc32)c1` (centres unmarked) [Example 58]: the EC50 (in assay [1]; on human TGR5) was 1260 to 50100 nM each time.
On to `O=C(O)CCc1ccc(Cl)c(CNC2(C(=O)N3CCN(C4CC4)c4ccccc43)CC2)c1` [Example 59, 3-(4-chloro-3-(((1-(4-cyclopropyl-1,2,3,4-tetrahydroquinoxaline-1-carbonyl)cyclopropyl)amino)methyl)phenyl)propanoic acid], for which the EC50 is 1260 to 50100 nM in assay [1] and 126 to 1000 nM on human TGR5.
With `CN(C[C@H](O)[C@@H](O)[C@H](O)[C@H](O)CO)C(=O)CCc1ccc(Cl)c(CNC2(C(=O)N3CCN(C4CC4)c4ccccc43)CC2)c1` [Example 60, 3-(4-chloro-3-(((1-(4-cyclopropyl-1,2,3,4-tetrahydroquinoxaline-1-carbonyl)cyclopropyl)amino)methyl)phenyl)-N-methyl-N-((2S,3R,4R,5R)-2,3,4,5,6-pentahydroxyhexyl)propanamide], the EC50 (in assay [1]; at human TGR5) was 126 to 1000 nM in each case.
In the case of `NCCCc1ccc(Cl)c(CNC2(C(=O)N3CCN(C4CC4)c4ccccc43)CC2)c1` [Example 68, (1-((5-(3-aminopropyl)-2-chlorobenzyl)amino)cyclopropyl)(4-cyclopropyl-3,4-dihydroquinoxalin-1(2H)-yl)methanone], the EC50 (in assay [1]; at human TGR5) was 1260 to 50100 nM in each case.
For the compound `CN(C[C@H](O)[C@@H](O)[C@H](O)[C@H](O)CO)C(=O)NCCCc1ccc(Cl)c(CNC2(C(=O)N3CCN(C4CC4)c4ccccc43)CC2)c1` [Example 69, 3-(3-(4-chloro-3-(((1-(4-cyclopropyl-1,2,3,4-tetrahydroquinoxaline-1-carbonyl)cyclopropyl)amino)methyl)phenyl)propyl)-1-methyl-1-((2S,3R,4R,5R)-2,3,4,5,6-pentahydroxyhexyl)urea], the EC50 (in assay [1]; on human TGR5) was 1260 to 50100 nM in each case.
In the case of `O=C(CCc1ccc(Cl)c(CNC2(C(=O)N3CCN(C4CC4)c4ccccc43)CC2)c1)NC[C@H](O)[C@@H](O)[C@H](O)[C@H](O)CO` [Example 70, 3-(4-chloro-3-(((1-(4-cyclopropyl-1,2,3,4-tetrahydroquinoxaline-1-carbonyl)cyclopropyl)amino)methyl)phenyl)-N-((2S,3R,4R,5R)-2,3,4,5,6-pentahydroxyhexyl)propanamide], the EC50 (in assay [1]; at human TGR5) was 1260 to 50100 nM in each case.
Consider `CN(C[C@H](O)[C@@H](O)[C@@H](O)[C@H](O)CO)C(=O)CCc1ccc(Cl)c(CNC2(C(=O)N3CCN(C4CC4)c4ccccc43)CC2)c1` [Example 71, 3-(4-chloro-3-(((1-(4-cyclopropyl-1,2,3,4-tetrahydroquinoxaline-1-carbonyl)cyclopropyl)amino)methyl)phenyl)-N-methyl-N-((2S,3R,4S,5R)-2,3,4,5,6-pentahydroxyhexyl)propanamide], for which the EC50 (in assay [1]; at human TGR5) was 126 to 1000 nM throughout.
As for `CN(C(=O)C1(OCc2cc(Cl)ccc2Cl)CC1)c1ccccc1OC1CCC1` [Example 72, N-(2-cyclobutoxyphenyl)-1-(2,5-dichlorobenzyloxy)-N-methylcyclopropanecarboxamide], the EC50 (in assay [1]; at human TGR5) was under 100 nM in each case.
Turning to `O=C([C@@H]1CCCN1Cc1cc(Cl)cc(OC(F)(F)F)c1)N1CCN(C2CC2)c2ccccc21` [Example 74, 1-[[(2S)-1-[[3-chloro-5-(trifluoromethoxy)phenyl]methyl]-pyrrolidin-2-yl]carbonyl]-4-cyclopropyl-1,2,3,4-tetrahydroquinoxaline], the EC50 is over 50100 nM in assay [1] and 126 to 1000 nM at human TGR5.
On to `O=C(N1CCN(C2CC2)c2ccccc21)C1(OCc2cc(Cl)ccc2Cl)CCOCC1` [Example 79, 1-cyclopropyl-4-([4-[(2,5-dichlorophenyl)methoxy]oxan-4-yl]carbonyl)-1,2,3,4-tetrahydroquinoxaline], for which the figures for the EC50 (in assay [1]; on human TGR5) were 1260 to 50100 nM and 126 to 1000 nM, respectively.

These data come from patent US20150148311A1, “NON-SYSTEMIC TGR5 AGONISTS” (Ardelyx, Inc., priority 2011, published 2015).
